Data set [1] can be described thus: Cytotoxicity against human KBMRI cells. The data set is classed as functional. The conditions noted are these: read-out: ED50 (the source's name).
Data set [2] has as its system HT-29. The data set can be described thus: Cytotoxicity against human HT-29 cells. In kind it is functional. The conditions noted are these: read-out: ED50 (the source's name).
The subject of data set [3] is A549. Description: Cytotoxicity against human A549 cells. In kind it is functional. The conditions noted are these: read-out: ED50 (the source's name).
The subject of data set [4] is Artemia. The data set can be described thus: Toxicity in brine shrimp. The following applies: in vivo. In kind it is organism-based.
For data set [5], the system named is P388. Description: In vivo cytotoxicity against mouse P388 cells relative to control. In kind it is functional.
Data set [6] concerns Agrobacterium tumefaciens. The data set can be described thus: Antitumor activity against Agrobacterium tumefaciens-induced crown gall tumors in potato tubers by potato disk test. In kind it is functional.

Each structure is given as a SMILES string. ≈ marks a conversion by molar mass, not a printed value.

The LC50 is the concentration lethal to half of the exposed cells or organisms. A low value points to a more lethal substance. For orientation: T/C means the ratio of treated to control.

Regarding `Cc1cc2c(c(O)c1O)C(=O)c1c(O)cccc1C2=O`, the EC50 was 5.7 µg/mL (≈ 21.1 µM) in data set [1], 2.8 µg/mL (≈ 10.4 µM) in data set [2] and 3.1 µg/mL (≈ 11.5 µM) in data set [3].

Take `COc1cc(O)c2c(c1)COC2=O`: the EC50 in data set [1] was above 100 µg/mL; in data set [2], 28 µg/mL (≈ 155 µM); in data set [3] it was above 100 µg/mL. For the same compound, in data set [4], the LC50 is given as above 1000 ppm.

With `Cc1cc(O)c2c(c1)C(=O)c1cc(O)cc(O)c1C2=O` [EMODIN], the EC50 was 6 µg/mL (≈ 22.2 µM) in data set [1], above 10 µg/mL in data set [2] and 4.2 µg/mL (≈ 15.5 µM) in data set [3]. The T/C in data set [5] came out at 127%. This compound showed a median lethal concentration (LC50) in data set [4] of 35 ppm. Further, the “inhibition (INH)” value in data set [6] amounted to 40%.

In the case of `CC(=O)c1c(C)cc2cccc(O)c2c1O` [NEPODIN], the EC50 was determined as 36.7 µg/mL (≈ 170 µM) in data set [1], 36.7 µg/mL (≈ 170 µM) in data set [2] and 31 µg/mL (≈ 143 µM) in data set [3]. The compound also showed an LC50 in data set [4] of 105 ppm.

The record behind these values is ChEMBL document CHEMBL1147291, “Bioactive compounds from the root of Myrsine africana” (J Nat Prod, 1989).
